{
  "source": "patent US11629155B2",
  "about": "“Small molecule antagonist compound TAC5 series having toll-like receptor 3/7/8/9 inhibitory function” (AJOU UNIVERSITY INDUSTRY-ACADEMIC COOPERATION FOUNDATION, priority 2018, dated 2023)",
  "system": "MARC/lpr mice",
  "assay": "SLE mouse model (MARC/lpr mice)",
  "format": "in vivo",
  "procedure": "QRT-PCR analysis was performed to detect the expression levels of specific genes in lymph nodes, spleen and kidney. Total RNA was isolated from lymph nodes, spleen and kidneys of 16-week-old mice using TRI reagent (Sigma-Aldrich, Co.). RNA was applied to qRT-PCR based on SYBR green (Enzo Life Sciences, Inc., Farmingdale, N.Y., USA). The following primers for the marker gene were used: mTLR7, 5′-ATGTGGACACGGAAGAGACAA-3′(SEQ ID NO: 1) and 5′-GGT AAG GGT AAG ATT GGT G-3′(SEQ ID NO: 2); mTLR9, 5′-ATGGTTCTCCGTCGAAGGACT-3′ (SEQ ID NO: 3) and 5′-GAG GCT TCA GCT CAC AGG G-3′(SEQ ID NO: 4); mIL-6, 5′-GAGGATACCACTCCCAACAGACC-3′(SEQ ID NO: 5) and 5′-AAGTGCATCATCGTTGTTCATACA-3′(SEQ ID NO: 6); mMyd88, 5′-CACCTGTGTCTGGTCCATTG-3′(SEQ ID NO: 7) and 5′-CTGTTGGACACCTGGAGACA-3′(SEQ ID NO: 8); mIL-17, 5′-GCT CCA GAA GGC CCT CAG A-3′ (SEQ ID NO: 9) and 5′-AGC TTT CCC TCC GCA TTG A-3′(SEQ ID NO: 10); mGAPDH, 5′-CTCAACACGGGAAACCTCAC-3′ (SEQ ID NO: 11) and 5′-CGCTCCACCAACTAAGAACG-3′(SEQ ID NO: 12) (Bioneer, Daejeon, Korea). Quantified individual RNA expression levels were normalized to GAPDH and expressed as RNA expression levels relative to the corresponding wild-type mice.\nThe therapeutic potential of TAC5-a on systemic autoimmunity was further determined by intraperitoneally injecting 10 nmol/g (daily dosage) of TAC5-a (dissolved in 1% dimethylsulfoxide [DMSO]) into MARC/lpr mice for 11 days. This inhibitor clearly influenced mouse lymphatic proliferation. […] The production of anti-dsDNA autoantibodies was kept low (FIG. 6B), and serum antinuclear antibodies (ANAs) were reduced by treatment with inhibitors (FIG. 6C). The detection of certain proteins, such as albumin, in the urine serves as a marker for a kidney pathology called glomerulonephritis (GN), which is caused by inflammation of the glomerulus. […] Then, the effect of TAC5-a on the relative expression behaviors of specific genes in lymph nodes, spleen and kidneys at the transcription level was confirmed.",
  "note": "“Also recorded” adds a separate entry of the source.",
  "data": [
    {"smiles": "Nc1cccc(COc2cccnc2N)c1", "note": "[TAC5-a, 3-((3-aminobenzyl)oxy)pyridin-2-amine]", "values": [
      {"measurement": "production of anti-dsDNA autoantibodies", "setting": "10 nmol/g daily i.p. for 11 days, FIG. 6B", "result": "kept low"},
      {"measurement": "serum antinuclear antibodies (ANAs)", "setting": "10 nmol/g daily i.p. for 11 days, FIG. 6C", "result": "reduced"},
      {"measurement": "content of urine albumin", "setting": "10 nmol/g daily i.p. for 11 days, FIG. 6D", "result": "significantly reduced"},
      {"measurement": "lymph node swelling, appearance evaluation or size decrease", "setting": "10 nmol/g daily intraperitoneally for 11 days, FIG. 6A", "result": "clearly observed; also recorded: significantly prevented"},
      {"measurement": "IL-6 mRNA level in lymph nodes (qRT-PCR)", "setting": "FIGS. 6E to 6G", "result": "significantly reduced"},
      {"measurement": "IL-17 mRNA level in lymph nodes (qRT-PCR)", "setting": "FIGS. 6E to 6G", "result": "significantly reduced"},
      {"measurement": "TLR7 mRNA level in lymph nodes (qRT-PCR)", "setting": "FIGS. 6E to 6G", "result": "significantly reduced"}
    ]}
  ]
}
